# Experimental data as given in PubChem BioAssay AID1918953 (Molecular Pharmacology Branch, DTP, NCI, 2023).
# Test system: MDA-MB-231 complex spheroid viability
# Experiment: Anticancer human tumor MDA-MB-231/ATCC cell line growth inhibition;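 further: drug exposure lasted 7 days starting on day 3 of spheroid growth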
# Details: for IC50: curve of first compound; for viability, T/C: stronger effect = lower value
# Outline: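 Drug combinations with the LSD1 inhibitor iadademstat tested on tumor cells co-cultured as spheroids with endothelial cells and mesenchymal stem cells. Concentrations descended in half-log increments from clinical Cmax or 10 microM.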
# [1] = second compound 0.1 µM, first compound 0.00316 µM
# [2] = second compound 0.1 µM, first compound 0.01 µM
# [3] = second compound 0.1 µM, first compound 0.0316 µM
# [4] = second compound 0.1 µM, first compound 0.1 µM
# [5] = second compound 0.316 µM, first compound 0.00316 µM
# [6] = second compound 0.316 µM, first compound 0.01 µM
# [7] = second compound 0.316 µM, first compound 0.0316 µM
# [8] = second compound 0.316 µM, first compound 0.1 µM
# [9] = second compound 1 µM, first compound 0.00316 µM
# [10] = second compound 1 µM, first compound 0.01 µM
# [11] = second compound 1 µM, first compound 0.0316 µM
# [12] = second compound 1 µM, first compound 0.1 µM
# [13] = second compound 3.16 µM, first compound 0.00316 µM
# [14] = second compound 3.16 µM, first compound 0.01 µM
# [15] = second compound 3.16 µM, first compound 0.0316 µM
# [16] = second compound 3.16 µM, first compound 0.1 µM
# [17] = second compound 10 µM, first compound 0.00316 µM
# [18] = second compound 10 µM, first compound 0.01 µM
# [19] = second compound 10 µM, first compound 0.0316 µM
# [20] = second compound 10 µM, first compound 0.1 µM
structure (smiles),measurement,setting,value
COc1cc(Nc2ncc3c(n2)-c2ccc(Cl)cc2C(c2c(F)cccc2OC)=NC3)ccc1C(=O)O + NC1CC1c1ccc(-c2cccc(O)c2)cc1,IC50,second compound 0.1 µM,< 3.16 nM
same,IC50,second compound 0.316 µM,< 3.16 nM
same,IC50,second compound 1 µM,< 3.16 nM
same,IC50,second compound 3.16 µM,< 3.16 nM
same,IC50,second compound 10 µM,< 3.16 nM
same,"viability, T/C",[1],43.8%
same,"viability, T/C",[2],48.9%
same,"viability, T/C",[3],43%
same,"viability, T/C",[4],40.8%
same,"viability, T/C","second compound 0.1 µM, first compound 0.316 µM",32.4%
same,"viability, T/C","second compound 0.1 µM, first compound 1 µM",21.9%
same,"viability, T/C",[5],40.7%
same,"viability, T/C",[6],40%
same,"viability, T/C",[7],38.5%
same,"viability, T/C",[8],34.7%
same,"viability, T/C","second compound 0.316 µM, first compound 0.316 µM",27.3%
same,"viability, T/C","second compound 0.316 µM, first compound 1 µM",21.4%
same,"viability, T/C",[9],37.5%
same,"viability, T/C",[10],39.9%
same,"viability, T/C",[11],38.3%
same,"viability, T/C",[12],38%
same,"viability, T/C","second compound 1 µM, first compound 0.316 µM",25.1%
same,"viability, T/C","second compound 1 µM, first compound 1 µM",18.6%
same,"viability, T/C",[13],41.4%
same,"viability, T/C",[14],41.4%
same,"viability, T/C",[15],41.1%
same,"viability, T/C",[16],35%
same,"viability, T/C","second compound 3.16 µM, first compound 0.316 µM",28.1%
same,"viability, T/C","second compound 3.16 µM, first compound 1 µM",18.9%
same,"viability, T/C",[17],30.7%
same,"viability, T/C",[18],33%
same,"viability, T/C",[19],31.3%
same,"viability, T/C",[20],31.1%
same,"viability, T/C","second compound 10 µM, first compound 0.316 µM",22.4%
same,"viability, T/C","second compound 10 µM, first compound 1 µM",15.7%
Cn1ncnc1C1c2n[nH]c(=O)c3cc(F)cc(c23)NC1c1ccc(F)cc1 (stereo not given) + NC1CC1c1ccc(-c2cccc(O)c2)cc1,IC50,second compound 0.1 µM,> 100 nM
same,IC50,second compound 0.316 µM,49 nM
same,IC50,second compound 1 µM,48.1 nM
same,IC50,second compound 3.16 µM,51.5 nM
same,IC50,second compound 10 µM,0.479 nM
same,"viability, T/C","second compound 0.1 µM, first compound 0.000316 µM",86.3%
same,"viability, T/C","second compound 0.1 µM, first compound 0.001 µM",87.6%
same,"viability, T/C",[1],74.2%
same,"viability, T/C",[2],77%
same,"viability, T/C",[3],62.4%
same,"viability, T/C",[4],60.4%
same,"viability, T/C","second compound 0.316 µM, first compound 0.000316 µM",64.4%
same,"viability, T/C","second compound 0.316 µM, first compound 0.001 µM",61%
same,"viability, T/C",[5],60.6%
same,"viability, T/C",[6],57.1%
same,"viability, T/C",[7],56.2%
same,"viability, T/C",[8],42.7%
same,"viability, T/C","second compound 1 µM, first compound 0.000316 µM",62.4%
same,"viability, T/C","second compound 1 µM, first compound 0.001 µM",61.5%
same,"viability, T/C",[9],57.2%
same,"viability, T/C",[10],51.2%
same,"viability, T/C",[11],53.5%
same,"viability, T/C",[12],47.4%
same,"viability, T/C","second compound 3.16 µM, first compound 0.000316 µM",66.6%
same,"viability, T/C","second compound 3.16 µM, first compound 0.001 µM",69.4%
same,"viability, T/C",[13],67.4%
same,"viability, T/C",[14],55.3%
same,"viability, T/C",[15],49.2%
same,"viability, T/C",[16],48.7%
same,"viability, T/C","second compound 10 µM, first compound 0.000316 µM",51.9%
same,"viability, T/C","second compound 10 µM, first compound 0.001 µM",46.5%
same,"viability, T/C",[17],43%
same,"viability, T/C",[18],42.5%
same,"viability, T/C",[19],33.1%
same,"viability, T/C",[20],32.2%
NS(=O)(=O)OCC1CC(n2ccc3c(NC4CCc5ccccc54)ncnc32)CC1O (stereo not given) + NC1CC1c1ccc(-c2cccc(O)c2)cc1,IC50,second compound 0.1 µM,82.3 nM
same,IC50,second compound 0.316 µM,75.3 nM
same,IC50,second compound 1 µM,82 nM
same,IC50,second compound 3.16 µM,70.6 nM
same,IC50,second compound 10 µM,36.4 nM
same,"viability, T/C","second compound 0.1 µM, first compound 0.00949 µM",128%
same,"viability, T/C","second compound 0.1 µM, first compound 0.03 µM",94.3%
same,"viability, T/C","second compound 0.1 µM, first compound 0.0949 µM",44.1%
same,"viability, T/C","second compound 0.1 µM, first compound 0.3 µM",28.6%
same,"viability, T/C","second compound 0.1 µM, first compound 0.949 µM",28.8%
same,"viability, T/C","second compound 0.1 µM, first compound 3 µM",27.9%
same,"viability, T/C","second compound 0.316 µM, first compound 0.00949 µM",118%
same,"viability, T/C","second compound 0.316 µM, first compound 0.03 µM",93.5%
same,"viability, T/C","second compound 0.316 µM, first compound 0.0949 µM",39.1%
same,"viability, T/C","second compound 0.316 µM, first compound 0.3 µM",27.2%
same,"viability, T/C","second compound 0.316 µM, first compound 0.949 µM",23.9%
same,"viability, T/C","second compound 0.316 µM, first compound 3 µM",27.8%
same,"viability, T/C","second compound 1 µM, first compound 0.00949 µM",114%
same,"viability, T/C","second compound 1 µM, first compound 0.03 µM",90.1%
same,"viability, T/C","second compound 1 µM, first compound 0.0949 µM",44.2%
same,"viability, T/C","second compound 1 µM, first compound 0.3 µM",29.3%
same,"viability, T/C","second compound 1 µM, first compound 0.949 µM",25.6%
same,"viability, T/C","second compound 1 µM, first compound 3 µM",28.4%
same,"viability, T/C","second compound 3.16 µM, first compound 0.00949 µM",116%
same,"viability, T/C","second compound 3.16 µM, first compound 0.03 µM",78.9%
same,"viability, T/C","second compound 3.16 µM, first compound 0.0949 µM",40.8%
same,"viability, T/C","second compound 3.16 µM, first compound 0.3 µM",27%
same,"viability, T/C","second compound 3.16 µM, first compound 0.949 µM",30.4%
same,"viability, T/C","second compound 3.16 µM, first compound 3 µM",28.3%
same,"viability, T/C","second compound 10 µM, first compound 0.00949 µM",68.6%
same,"viability, T/C","second compound 10 µM, first compound 0.03 µM",53.4%
same,"viability, T/C","second compound 10 µM, first compound 0.0949 µM",34.8%
same,"viability, T/C","second compound 10 µM, first compound 0.3 µM",27%
same,"viability, T/C","second compound 10 µM, first compound 0.949 µM",26.3%
same,"viability, T/C","second compound 10 µM, first compound 3 µM",20.2%
